Assay results reported in patent publication US10314847B2, “Scalarane sesterterpenoid, pharmaceutical composition and topoisomerase II and Hsp90 inhibitor for treating cancer, and use and preparation method thereof” (NATIONAL DONG HWA UNIVERSITY, priority 2017, dated 2019).

Tests used:
Molt 4 = tested on: Molt 4
Excerpt: The cell lines were obtained from the American Type Culture Collection (ATCC, Manassas, Va., U.S.A.) or the Japanese Collection of Research Biosources (JCRB) Cell Bank (Japan). […] Antibodies against XIAP, NFκB (p65), GADD, CDK 4, HSF 1, ATF 6 and β-tubulin were obtained from Santa Cruz Biotechnology (Santa Cruz, Calif., U.S.A.). The Hybond ECL transfer membrane and ECL Western blotting detection kits were obtained from Amersham Life Sciences (Amersham, U.K.).
Several cancer cell lines including leukemia K562, Molt 4, and HL 60 cells, prostate cancer LNCaP cells, colon cancer DLD-1 cells and breast cancer T-47D cells were used to evaluate the antiproliferative activity (referring to Table 2).
(§1) It is known that mitochondria are critical intracellular loci of ROS production and ROS exposure can lead to the […] opening. The antioxidant, microsomal GST1, in the inner mitochondrial membrane can interact with the mitochondrial permeability transition (MPT) regulator proteins, such as ANT and/or CypD, to form a MPT pore contributing to mitochondria-mediated cell death. In addition, mitochondrial homeostasis of tumor cells is regulated by an organelle-specific Hsp90 chaperone network.

Molt 4 cells [1] = test: JC-1 staining, mitochondrial membrane potential disruption; assay type: cell-based, human; details: Molt 4 cells, 0.0625, 0.125 and 0.25 μg/mL, 24 hours, dose-dependent
Procedure: (§2) Determination of Reactive Oxygen Species (ROS) Generation, Calcium Accumulation, and Matrix Metalloproteinase (MMP) Disruption:
(§3) MMP disruption, calcium accumulation and ROS generation were detected with the JC-1 cationic dye (5 μg/mL), the fluorescent calcium indicator (Fluo 3, […]) and the carboxy derivative of fluorescein (carboxy-H2DCFDA, […]), respectively. In brief, the treated cells were labeled with a specific fluorescent dye for 30 minutes. After labeling, cells were washed with PBS and resuspended in PBS at a concentration of 1×10^6 cells/mL before analysis via flow cytometry.

Molt 4 cells [2] = test: Intracellular calcium accumulation (Fluo 3, flow cytometry); assay type: cell-based, human
Procedure: as §2, §3
Oxidative stress is manifested by ROS overexpression and cannot be balanced by the available antioxidant machinery. Compound 1 of the present invention can damage the integrity of mitochondria, which are the major production sites of the superoxide anion, […]. The induction of the intracellular formation of ROS by compound 1 was determined with a carboxyl derivative of fluorescein, carboxy-H2DCFDA dye using flow cytometric analysis. […] Furthermore, the effect of compound 1 on the release of intracellular Ca^2+, was evaluated using fluorescent calcium indicator, Fluo 3. […] Thus, the effect of compound 1 (0.0625 μg/mL) at different time intervals (0, 3, 6 and 9 hours) on the level of nuclear DNA integrity was determined. […]

[3] = tested on: apoptosis-related proteins; test: Western blot of apoptosis-related proteins; assay type: cell-based, human; details: Molt 4 cells, time-dependent
Procedure: Oxidative stress is manifested by ROS overexpression and cannot be balanced by the available antioxidant machinery. Compound 1 of the present invention can damage the integrity of mitochondria, which are the major production sites of the superoxide anion, […]. The induction of the intracellular formation of ROS by compound 1 was determined with a carboxyl derivative of fluorescein, carboxy-H2DCFDA dye using flow cytometric analysis. […] In addition, ROS generation could induce ER stress leading to mitochondria-related apoptosis. To further investigate if ER stress is involved in the apoptotic effect induced by compound 1, Western blot analysis was used to determine the expression of ER stress-related proteins. […] Furthermore, the effect of compound 1 on the release of intracellular Ca^2+, was evaluated using fluorescent calcium indicator, Fluo 3. […] In FIG. 4(D), the induction of the typical executor caspases-3 and -7, and γH2AX, was also observed using Western blot analysis. To confirm the induction of DNA damage by compound 1 in Molt 4 cells, a comet assay under neutral electrophoresis condition was utilized. Thus, the effect of compound 1 (0.0625 μg/mL) at different time intervals (0, 3, 6 and 9 hours) on the level of nuclear DNA integrity was determined. […]

[4] = molecular target: T1, Hsp90 protein (PDB ID: 1YET) (Homo sapiens, UniProt P07900); test: Molecular docking (Autodock 4.2)
T1 construct: Compound 1 could be docked to the N-terminal domain of Hsp90
Excerpt: as §1

Hsp90 client proteins = test: Western blot of Hsp90, Hsp70 and Hsp90 client proteins; assay type: cell-based, human; details: Molt 4 cells, 0.0625 μg/mL
Procedure: (§4) The induction of Hsp70 is the biomarker of Hsp90 with N-terminal inhibition. Aiming to understand the relation between Hsp90 function and the expression of Hsp70 and 90 clients, Molt 4 cells were treated with compound 1 (0.0625 μg/mL) for different time intervals. […] Furthermore, as shown in FIG. 5(B), Hsp90 client proteins were suppressed, including p70^S6K, NFκB, Raf-1, p-GSK3β, MEK 1 and XIAP ([…] protein), MDM 2 and Rb2 (oncoprotein), and CDK4 (cell cycle regulatory protein), HIF 1 and HSF1 (transcription factor). The majority of Hsps accumulate in subcellular localizations that determine whether a cell is going to die or differentiate. Furthermore, the localization of Hsp70 in response to the compound 1 treatment was identified using immunofluorescence by confocal microscope.

Hsp70 = test: Immunofluorescence analysis of Hsp70 localization; assay type: cell-based, human; details: Molt 4 cells, confocal microscope
Procedure: Immunofluorescence Analysis:
After treatment with the tested compound, cells were fixed with 4% paraformaldehyde in 50 mM HEPES buffer (pH 7.3) for 30 minutes, and permeabilized for 20 minutes with 0.2% Trition X-100 in PBS (pH 7.4). To prevent non-specific protein binding, cells were incubated with 5% BSA in PBS containing 0.05% Trition X-100 (T-PBS) for 1 hour at room temperature. Cells were then incubated with the primary Hsp70 antibodies (1:500) for 2 hours and further with secondary antibodies (Alexa Fluor […] goat anti-mouse IgG (H+L) (Life Technologies, Carlsbad, Calif., U.S.A.)) diluted at 1:1000 for 1 hour at room temperature. After washing with PBS, cells were observed under a FV1000 confocal laser scanning microscope (Olympus, Tokyo, Japan).
as §4, with “The majority of Hsps accumulate in subcellular localizations that determine whether a cell is going to die or differentiate. Furthermore, the localization of Hsp70 in response to the compound 1 treatment was identified using immunofluorescence by confocal microscope.” left out

For `CC[C@@]1(C)CCC[C@]2(C)[C@H]3C[C@@H](OC(=O)C[C@@H](C)O)[C@]4(C)[C@@H](C=O)C(C(C)=O)=CC[C@H]4[C@]3(C)CC[C@@H]12` (relative stereo) [Compound 1, 12β-(3′β-hydroxybutanoyloxy)-20,24-dimethyl-24-oxo-scalara-16-en-25-al], the “Cytotoxic effect IC50, Molt 4” value (Molt 4) was 0.01 µg/mL, the “Mitochondrial membrane potential (JC-1)” value (Molt 4 cells [1]) was “disruption in mitochondrial membrane potential” and the “Increase in intracellular Ca2+ accumulation versus MFI of control” value (Molt 4 cells [2]; 2 hours) was 1.06 folds. The “Increase in intracellular Ca2+ accumulation versus MFI of control” value (Molt 4 cells [2]; 18 hours) was 1.06 folds, the “Cleavage of apoptosis-related proteins” value [3] was “PARP, caspases-8 and -9 cleavages were significantly increased in a time-dependent manner” and the “Potency of Hsp90 inhibition constant relative to 17-AAG” value [4] was > 1430 folds. The “Expression of HSF 1 protein” value (Hsp90 client proteins) was “attenuated”, the “Hsp90 client proteins (p70S6K, NFκB, Raf-1, p-GSK3β, MEK 1, XIAP, MDM 2, Rb2, CDK4, HIF 1, HSF1)” value (Hsp90 client proteins) was “suppressed” and the “Expression of Hsp70” value (Hsp90 client proteins; different time intervals) was “increased in a time-dependent manner”. The “Expression of Hsp90 protein” value (Hsp90 client proteins; different time intervals) was “did not notably attenuate” and the “Localization of Hsp70” value (Hsp70) was “predominantly accumulated in cytosol”.
